Test: Human HepG2 cell viability assay in 384 well format
Assay type: toxicity, cell-based
Design: dose 125 nL, time 70.5 hour; cytotoxicity at 70.5 h: concentration not given beside the values
Details: HepG2 cells, read-out: Inhibition

Structure (SMILES)	cytotoxicity at 70.5 h
COc1ncccc1NC(=O)N1CCC(C(=O)NC(C)C)CC1	-5.13%
COc1ncccc1NC(=O)NCC1CC1	-3.58%
CCN(CC)C(=O)C1CCN(C(=O)Nc2cccnc2OC)CC1	34.4%
Cc1nc2c(c(C)c1CC(=O)Nc1ccnn1C(C)C)c(=O)[nH]n2C	2.43%
CCOC(=O)COc1cccc(NC(=O)C2COCCO2)c1 (stereo not drawn)	-3.53%
COc1cccc(NC(=O)Cc2c(C)nc3c(c2C)c(=O)[nH]n3C)c1	-6.7%
Cc1cc(C)n(CC2CCCCN2CC(=O)Nc2nnc(C)s2)n1 (stereo not drawn)	-2.39%
CCS(=O)(=O)c1ccc(N2CCC(N)CC2)cc1	-1.97%
CCS(=O)(=O)c1ccc(N2CCC(NC(=O)NC(C)CO)CC2)cc1 (stereo not drawn)	-1.95%
CC(=O)NCCNC(=O)NCCCc1cccc(F)c1	-5.39%
O=S(=O)(Cc1cccc(F)c1)NCC(O)Cc1ccccc1 (stereo not drawn)	-10.7%
COCCCS(=O)(=O)N1CCN(c2cccc(O)c2)CC1	-6.99%
CCc1nc(NS(=O)(=O)c2cc(C)c(F)cc2Cl)no1	25.9%
CCc1nc(NS(=O)(=O)c2ccc(F)cc2Cl)no1	-8.4%
COc1ncccc1NC(=O)N1CCCC(CNC(=O)OC(C)(C)C)C1 (stereo not drawn)	-6.55%
c1nc(N2CCCC2Cn2cncn2)c2ccsc2n1 (stereo not drawn)	30.4%
COCCN1CCN(CCS(=O)(=O)c2cccc(OC)c2)CC1	-2.71%
CCCC1CCCN(C(=O)Nc2cccnc2OC)CC1 (stereo not drawn)	19.4%
Cc1cc(NC(=O)NC2CCCc3c2cnn3CCO)n(C)n1 (stereo not drawn)	-1.75%
Cc1nnc(NC(=O)NC2CCCc3c2cnn3CCO)s1 (stereo not drawn)	-6.14%
N#Cc1ccc(OCC(O)CN2CCN(c3nccs3)CC2)cc1 (stereo not drawn)	13.7%
Cc1ccc(C)c(S(=O)(=O)NCCC(=O)NCc2ccoc2)c1	-11.7%
O=C(CCNS(=O)(=O)c1ccc(F)cc1)NCc1ccoc1	-9.41%
Cc1cc(C)c(S(=O)(=O)NCCC(=O)NCc2ccoc2)c(C)c1	3.02%

Structure (SMILES)	cytotoxicity at 70.5 h
O=C(CCNS(=O)(=O)c1ccc(Cl)cc1)NCc1ccoc1	-5.84%
Cc1ccc(CNC(=O)NC2CCCc3c2cnn3CCO)cn1 (stereo not drawn)	-11.1%
CC(C)CCC(=O)Nc1ccc2oc(=O)n(CCN(C)C)c2c1	-1.73%
CN(Cc1ccncc1)C(=O)CCNS(=O)(=O)c1cccnc1	2.92%
CC(C)NC(=O)CCNC(=O)c1cnc(Cc2ccc(F)cc2)s1	-4.85%
COC(=O)CCNC(=O)c1cnc(Cc2ccc(F)cc2)s1	-2.52%
Cc1ccc(C(=O)N(CCC#N)Cc2ccccn2)cc1C	8.47%
Cc1cccc(OCC(O)CN2CCN(c3nccs3)CC2)c1 (stereo not drawn)	-3.61%
COCc1ccc(C(=O)N(CCC#N)Cc2ccccn2)cc1	-3.02%
Cc1nc(COc2ccc(CNCCn3cccn3)cc2)cs1	4.56%
CC(O)CN1CCN(C(=O)c2cnn(-c3ccccc3Cl)c2)CC1 (stereo not drawn)	-2.98%
Cc1cnn(CCNCc2ccc(OCc3cscn3)cc2)c1	-6.84%
CN(C)CCCNC(=O)c1cnc(Cc2ccc(F)cc2)s1	-6.21%
COc1c(C)cnc(CSc2nnc(N3CCCC3)s2)c1C	8.14%
O=C(O)c1ccc(S(=O)(=O)Nc2c(F)cccc2-n2cccn2)cc1	-1.35%
CCN(CC1CN(Cc2cccc(C#N)c2)CCO1)c1cccnn1 (stereo not drawn)	0.605%
CC(C)OCCC(=O)NCCc1csc(N2CCCC2)n1	5.53%
COc1c(C)cnc(CSc2nnc(N)s2)c1C	-3.12%
Cc1cnn(CCNCc2ccc(OCc3ccccn3)cc2)c1	2.45%
COc1cc(C(=O)N(CCC#N)Cc2ccccn2)ccc1C	2.05%
Cc1ccc(C2COCCN2C(=O)c2ccc(C#N)cc2)o1 (stereo not drawn)	-7.82%
COCc1ccc(C(=O)N2CCOCC2c2ccc(C)o2)cc1 (stereo not drawn)	-0.476%
Cc1cnn(CCNCc2ccc(OCc3noc(C)n3)cc2)c1	-6.14%
O=C(CCNS(=O)(=O)c1ccccc1F)NCc1ccoc1	4.05%

Structure (SMILES)	cytotoxicity at 70.5 h
CC(C)(O)CSCCNCc1ccc(Cl)c2cccnc12	12.8%
COCCCNC1CCCN(c2ccc(C)nn2)C1 (stereo not drawn)	-9.97%
Cc1cccc(S(=O)(=O)N2CSCC2C(=O)NC(C)(C)C)c1 (stereo not drawn)	-3.48%
CC(C)(C)NC(=O)C1CSCN1S(=O)(=O)c1ccccc1S(C)(=O)=O (stereo not drawn)	-1.89%
CC(C)(C)NC(=O)C1CSCN1S(=O)(=O)c1ccccc1F (stereo not drawn)	-4.62%
CN(c1ccc2ccccc2c1)S(=O)(=O)c1cc(C(=O)O)cs1	-8.18%
O=C(NC1CCN(C2CC2)CC1)NC1CCOc2ccc(Br)cc21 (stereo not drawn)	5.74%
Cc1cccc(N(C)S(=O)(=O)c2cc(C(=O)O)cs2)c1C	-5.76%
Cc1noc(Cl)c1CC(=O)NCC(C)(O)c1ccc(F)cc1F (stereo not drawn)	10.7%
CSCCc1ccc(NC(=O)NC(C)Cn2cncn2)cc1 (stereo not drawn)	-2.38%
COC(=O)NCC(=O)NCC(C)(C)c1cccc(C(F)(F)F)c1	-1.23%
CC1CN(C2CCN(Cc3nccn3CC(F)(F)F)CC2)CCO1 (stereo not drawn)	-9.54%
CC(C)C(C#N)N1CCN(Cc2nccn2CC(F)(F)F)CC1 (stereo not drawn)	-10.7%
CCN(Cc1ccccc1)C1CCN(c2cc(C)nn2C)C1=O (stereo not drawn)	-8.27%
Cn1cc(C(=O)Nc2ccnc(Oc3ccccc3)c2)ccc1=O	-5.49%
CN(C(=O)COC1CCCCC1)C1CCN(CC2CCOC2)CC1 (stereo not drawn)	-1.92%
O=C(C[S+]([O-])Cc1c(F)cccc1Cl)N1CCc2sccc2C1 (stereo not drawn)	-6.1%
O=C(C[S+]([O-])Cc1ccc(F)cc1Cl)N1CCc2sccc2C1 (stereo not drawn)	-6.4%
COC(=O)c1sc(NCc2ccc(N3CCC(O)CC3)c(F)c2)nc1Cl	-4.16%
Cc1c(C(=O)NC2(C#N)CCCC2)nnn1-c1ccccc1Cl	-9.11%
Cc1c(C(=O)NC2(C#N)CCSC2)cnn1-c1ccccc1Cl (stereo not drawn)	1.06%
CN(CC(=O)N(C)C1CCN(CC2CCOC2)CC1)c1ccccc1 (stereo not drawn)	-4.84%
CCn1cc(NC(=O)c2cccc(OCC(F)(F)F)n2)cn1	-7.52%
O=c1c2cccnc2cnn1CC(O)c1cccc(C(F)(F)F)c1 (stereo not drawn)	11.1%

Structure (SMILES)	cytotoxicity at 70.5 h
CN1CCN(S(=O)(=O)c2cccc(C#N)c2)c2ccc(F)cc21	0.333%
Cc1cc(C(=O)NC2CC(=O)N(C(C)C)C2=O)c(C)n1C(C)C (stereo not drawn)	-7.47%
O=C(NCCOc1ccc(C(F)(F)F)cn1)c1ccoc1	-6.01%
Cc1nc(C)c(C(=O)NCCOc2ccc(C(F)(F)F)cn2)o1	-3.32%
Cc1occc1C(=O)NCCOc1ccc(C(F)(F)F)cn1	18.8%
CC(NCc1cnc(C2CCC2)s1)c1ccccc1-n1cccn1 (stereo not drawn)	-3.26%
CCc1nnc2ccc(NCC3(O)CCOCC3)nn12	-7.18%
CC(NCc1cnc(C2CCC2)s1)c1ccc(-n2cccn2)cc1 (stereo not drawn)	-8.33%
CN(C(=O)COC1CCCC1)C1CCN(CC2CCOC2)CC1 (stereo not drawn)	-11.5%
CNC(=O)CCCNCc1c(C)nn(CC(C)C)c1N(C)C	0.675%
CC(C)=CCS(=O)(=O)Cc1noc(CC(C)C)n1	-1.31%
CN(CC(=O)Nc1cccc(F)c1)Cc1nc(N)nc(N(C)C)n1	1.01%
O=S(=O)(N1CCOCC1)N1CCc2sccc2C1	6.06%
CN(C)c1nc(N)nc(CSCCC(=O)Nc2cccc(Cl)c2)n1	19.2%
CC(C)c1noc(CS(=O)(=O)Cc2nc(C(C)C)no2)n1	-7.1%
O=S(=O)(c1ccccc1)N1CCN(Cc2ccc(F)cc2Br)CC1	-8.77%
O=C(c1cc(Cl)c2c(c1)OCCCO2)N(CC1CCOC1)C1CC1 (stereo not drawn)	-7.67%
CC(C)S(=O)(=O)CC(=O)N(Cc1ccsc1)c1ccccc1	-7.19%
Cn1cc(NC(=O)Cc2cccs2)c(=O)n(C)c1=O	-9.77%
N#Cc1nccnc1N1CCC(CSc2ccccc2)C1 (stereo not drawn)	-9.74%
O=S(=O)(N1CCCC1)N1CCc2sccc2C1	0.675%
CCc1nc(C)ncc1C(=O)N1CCN(CC)c2ccccc21	8.71%
CCc1nc(C)ncc1C(=O)N1CC(=O)N(C)c2ccccc21	-10.1%
COc1ncc(Cl)c(NCc2ccc(C(=O)N(C)C)cc2)n1	27.7%

Structure (SMILES)	cytotoxicity at 70.5 h
N#Cc1nccnc1N1CCC(OCCCc2ccccc2)C1 (stereo not drawn)	-6.29%
CCc1nc(C)ncc1C(=O)N1CC(C)CN(C)c2ccccc21 (stereo not drawn)	-7.55%
Cc1nc(C2CCCN2Cc2cc(Cl)c3c(c2)OCCO3)no1 (stereo not drawn)	16.9%
COC1CCCN(C(=O)NCCCF)C1 (stereo not drawn)	-2.7%
Cc1ccc(C2CN(Cc3cnc(-c4ccccn4)s3)CCO2)o1 (stereo not drawn)	22.5%
N#CCCN(CCC#N)C(=O)CN(C1CC1)C1CCc2ccccc21 (stereo not drawn)	-2.92%
CC(NC(=O)C1CCCC1)c1nc(-c2ccccc2)c[nH]1 (stereo not drawn)	1.26%
CCOc1ccc(NC(=O)N2CCNC(=O)C2)c(C(F)(F)F)c1	1.37%
O=C(O)CSc1nc(-c2ccc3c(c2)CCC3)n[nH]1	2.18%
COCCS(=O)(=O)NC(C)c1ccccc1Br (stereo not drawn)	-0.0652%
CC(C)(C)C(=O)NS(=O)(=O)c1ccc(F)cc1C(F)(F)F	-3.41%
CSCc1cccc(NC(=O)N2CCC(N3CC=CC3)C2)c1 (stereo not drawn)	35%
CS(=O)(=O)CCSc1n[nH]c(-c2ccc3c(c2)CCC3)n1	3.91%
Cc1cc(C(=O)Nc2cccn(Cc3ccc(F)cc3)c2=O)on1	-3.03%
CC1CN(C(=O)c2ccc(=O)n(C)c2)c2ccccc2NC1=O (stereo not drawn)	-0.859%
CSCC(C)(O)CNc1ncccc1I (stereo not drawn)	7.7%
CN(C)C(CNCc1nc(-c2ccsc2)no1)c1ccco1 (stereo not drawn)	-16.8%
Cc1cc(C(C)NCCN2CCC(N(C)C)CC2)c(C)s1 (stereo not drawn)	12.7%
CC(CNCC1(S(C)(=O)=O)CCOCC1)c1ccc(F)cc1 (stereo not drawn)	9.05%
CN(CCS(=O)(=O)c1cc(Cl)ccc1Cl)CC(=O)Nc1ccc(F)cc1	6.55%
Fc1cccc2ncnc(NCC3(N4CCOCC4)CCSC3)c12 (stereo not drawn)	3.01%
CN(CC(N)=O)C(=O)c1cnc(-c2ccc(Cl)s2)s1	-4.25%

Source: ChEMBL document CHEMBL3507680, “University of Dundee, Gates Library screen for HepG2 cell viability”
